Experimental data: patent US20260041679A1, “METHOD OF TREATING HYPERTENSION WITH THE ALDOSTERONE SYNTHASE INHIBITOR BAXDROSTAT” (CINCOR PHARMA, INC., priority 2022, published 2026)

Test system: patients with uHTN
Test: Study 124 Part 1: seated SBP in patients with uncontrolled hypertension (Example 9)
Type: in vivo, human
Set-up: key to Model-Based Least-Squares Mean Change from Baseline (SBP) / LSMEANS change from baseline (SBP) / Model-Based Least-Square Mean Change from Baseline (SBP): LS mean change from baseline in seated SBP, mmHg
Protocol: Study 124 is a double-blind, placebo-controlled, dose range finding, multicenter study conducted in patients with uHTN receiving background antihypertensive agent(s) that are either an ACEI or an ARB, an ACEI/ARB plus a thiazide diuretic, or an ACEI/ARB plus a calcium channel blocker. The study consists of two parts: Part 1 consists of an 8-week treatment period in which the patients are to be assigned to one of 4 dose groups in equal ratio testing 0.5 mg, 1 mg, and 2 mg baxdrostat effects compared to a placebo. Patients are to administer double-blind baxdrostat tablets once per day while they continue taking the background antihypertensive medications. After 8 weeks of double-blind treatment, patients were to enter part 2 of the study unless the patient was assigned to the 2 mg group and the SBP remains ≥130 mmHg. In part 2 of the study, all patients are to cease dosing with background antihypertensive medication and take only baxdrostat 2 mg dose as a monotherapy for 4 weeks.
Key inclusion criteria include that patients are on a stable regimen of anti-hypertensive agents for at least 8 weeks; and have a seated BP≥140 mmHg. Key exclusion criteria include a seated SBP≥180 mmHg and estimated glomerular filtration rate (eGFR)<30 mL/min/1.73 m^2.
In this table, CI=confidence interval, DBP=diastolic blood pressure, LS=least squares, SBP=systolic blood pressure, SE=standard error. The LS means, CIs, and p-values are from an MMRM model with change from baseline as the dependent variable with randomized treatment, visit, and treatment-by-visit interaction as fixed categorical effects; along with covariates of the baseline value, race (African American versus non-African American), and the type of background antihypertensive regimen. The restricted maximum likelihood estimation (REML) approach will be used with an unstructured covariance matrix and the Kenward-Roger approximation for degrees of freedom.

[1] = 0.5 mg (N = 11), mITT Population for Compliance for Black Patients
[2] = 0.5 mg (N = 11), mITT, Female Non-Hispanic Female Patients
[3] = 0.5 mg (N = 12), mITT, Non-Hispanic Male Patients
[4] = 0.5 mg (N = 15), mITT, Hispanic Male Patients
[5] = 1 mg (N = 11), mITT, Female Non-Hispanic Female Patients
[6] = 1 mg (N = 13), mITT Population for Compliance for Black Patients
[7] = 1 mg (N = 14), mITT, Female Hispanic/Latino Patients
[8] = 1 mg (N = 14), mITT, Hispanic Male Patients
[9] = 1 mg (N = 22), mITT, Non-Hispanic Male Patients

Question: What does the source list for CCC(=O)N[C@@H]1CCCc2c(-c3ccc4c(c3)CCC(=O)N4C)cncc21 [baxdrostat, (R)—N-(4-(1-methyl-2-oxo-1,2,3,4-tetrahydroquinolin-6-yl)-5,6,7,8-tetrahydroisoquinolin-8-yl) propionamide]?
Answer: SBP Change from Baseline to Week 8, Mean (0.5 mg): −17.0 mmHg; SBP Change from Baseline to Week 8, Median (0.5 mg): −17.0 mmHg; SBP at Week 8, Median (0.5 mg): 127.0 mmHg; Model-Based Least-Square Mean Change from Baseline (SBP) (0.5 mg (N = 11), Week 2, mITT Population for Compliance for Black Patients): −9.0; Model-Based Least-Squares Mean Change from Baseline (SBP) (0.5 mg (N = 11), Week 2, mITT, Female Non-Hispanic Female Patients): −12.5; Model-Based Least-Square Mean Change from Baseline (SBP) (0.5 mg (N = 11), Week 4, mITT Population for Compliance for Black Patients): −11.6; Model-Based Least-Squares Mean Change from Baseline (SBP) (0.5 mg (N = 11), Week 4, mITT, Female Non-Hispanic Female Patients): −12.2; Model-Based Least-Square Mean Change from Baseline (SBP) (0.5 mg (N = 11), Week 6, mITT Population for Compliance for Black Patients): −13.0; Model-Based Least-Squares Mean Change from Baseline (SBP) (0.5 mg (N = 11), Week 6, mITT, Female Non-Hispanic Female Patients): −11.8; Model-Based Least-Square Mean Change from Baseline (SBP) (0.5 mg (N = 11), Week 8, mITT Population for Compliance for Black Patients): −17.2; Model-Based Least-Squares Mean Change from Baseline (SBP) (0.5 mg (N = 11), Week 8, mITT, Female Non-Hispanic Female Patients): −16.7; Comp w/ Placebo at Week 6, Diff (95% CI) [1]: −2.6 (−14.94, 9.64); Comp w/ Placebo at Week 8, Diff (95% CI) [1]: −3.0 (−13.58, 7.49); Comp w/ Placebo at Week 6, Diff (95% CI) [2]: −1.5 (−13.92, 10.84); Comp w/ Placebo at Week 8, Diff (95% CI) [2]: −3.7 (−13.14, 5.67); Model-Based Least-Squares Mean Change from Baseline (SBP) (0.5 mg (N = 12), Week 2, mITT, Non-Hispanic Male Patients): −19.9; Model-Based Least-Squares Mean Change from Baseline (SBP) (0.5 mg (N = 12), Week 4, mITT, Non-Hispanic Male Patients): −20.5; Model-Based Least-Squares Mean Change from Baseline (SBP) (0.5 mg (N = 12), Week 6, mITT, Non-Hispanic Male Patients): −16.3; Model-Based Least-Squares Mean Change from Baseline (SBP) (0.5 mg (N = 12), Week 8, mITT, Non-Hispanic Male Patients): −17.2; Comp w/ Placebo at Week 6, Diff (95% CI) [3]: −6.4 (−17.23, 4.48); Comp w/ Placebo at Week 8, Diff (95% CI) [3]: −2.2 (−12.46, 8.04); Model-Based Least-Squares Mean Change from Baseline (SBP) (0.5 mg (N = 15), Week 2, mITT, Hispanic Male Patients): −8.3; Model-Based Least-Squares Mean Change from Baseline (SBP) (0.5 mg (N = 15), Week 4, mITT, Hispanic Male Patients): −12.6; Model-Based Least-Squares Mean Change from Baseline (SBP) (0.5 mg (N = 15), Week 6, mITT, Hispanic Male Patients): −16.0; Model-Based Least-Squares Mean Change from Baseline (SBP) (0.5 mg (N = 15), Week 8, mITT, Hispanic Male Patients): −18.6; Comp w/ Placebo at Week 6, Diff (95% CI) [4]: −4.7 (−12.73, 3.30); Comp w/ Placebo at Week 8, Diff (95% CI) [4]: 0.1 (−6.20, 6.41); SBP at Week 8, Mean (0.5 mg QD, mITT): 129.1 mmHg; SBP LS mean change from baseline (SE), MMRM (0.5 mg, Week 8): −17 (1.63) mm Hg; SBP LS mean difference (SE) vs placebo (0.5 mg, Week 8): −0.5 (2.21) mmHg; LS Mean Change from Baseline (SE) in SBP (0.5 mg, Wk 2): −10.3 (1.61) mm Hg; LS Mean Change from Baseline (SE) in SBP (0.5 mg, Wk 4): −14.2 (1.61) mm Hg; LS Mean Change from Baseline (SE) in SBP (0.5 mg, Wk 6): −13.5 (1.88) mm Hg; SBP Change from Baseline to Week 8, Mean (1 mg): −16.6 mmHg; SBP Change from Baseline to Week 8, Median (1 mg): −16.0 mmHg; SBP at Week 8, Median (1 mg): 128.0 mmHg; Model-Based Least-Squares Mean Change from Baseline (SBP) (1 mg (N = 11), Week 2, mITT, Female Non-Hispanic Female Patients): −11.8; Model-Based Least-Squares Mean Change from Baseline (SBP) (1 mg (N = 11), Week 4, mITT, Female Non-Hispanic Female Patients): −13.5; Model-Based Least-Squares Mean Change from Baseline (SBP) (1 mg (N = 11), Week 6, mITT, Female Non-Hispanic Female Patients): −20.3; Model-Based Least-Squares Mean Change from Baseline (SBP) (1 mg (N = 11), Week 8, mITT, Female Non-Hispanic Female Patients): −23.8; Comp w/ Placebo at Week 6, Diff (95% CI) [5]: −10.0 (−22.06, 2.15); Comp w/ Placebo at Week 8, Diff (95% CI) [5]: −10.8 (−20.05, −1.63); Model-Based Least-Square Mean Change from Baseline (SBP) (1 mg (N = 13), Week 2, mITT Population for Compliance for Black Patients): −8.9; Model-Based Least-Square Mean Change from Baseline (SBP) (1 mg (N = 13), Week 4, mITT Population for Compliance for Black Patients): −11.8; Model-Based Least-Square Mean Change from Baseline (SBP) (1 mg (N = 13), Week 6, mITT Population for Compliance for Black Patients): −13.5; Model-Based Least-Square Mean Change from Baseline (SBP) (1 mg (N = 13), Week 8, mITT Population for Compliance for Black Patients): −17.4; Comp w/ Placebo at Week 6, Diff (95% CI) [6]: −3.1 (−14.59, 8.31); Comp w/ Placebo at Week 8, Diff (95% CI) [6]: −3.2 (−12.88, 6.52); Model-Based Least-Squares Mean Change from Baseline (SBP) (1 mg (N = 14), Week 2, mITT, Female Hispanic/Latino Patients): −7.8; Model-Based Least-Squares Mean Change from Baseline (SBP) (1 mg (N = 14), Week 2, mITT, Hispanic Male Patients): −7.0; Model-Based Least-Squares Mean Change from Baseline (SBP) (1 mg (N = 14), Week 4, mITT, Female Hispanic/Latino Patients): −10.3; Model-Based Least-Squares Mean Change from Baseline (SBP) (1 mg (N = 14), Week 4, mITT, Hispanic Male Patients): −6.4; Model-Based Least-Squares Mean Change from Baseline (SBP) (1 mg (N = 14), Week 6, mITT, Female Hispanic/Latino Patients): −12.6; Model-Based Least-Squares Mean Change from Baseline (SBP) (1 mg (N = 14), Week 6, mITT, Hispanic Male Patients): −9.2; Model-Based Least-Squares Mean Change from Baseline (SBP) (1 mg (N = 14), Week 8, mITT, Female Hispanic/Latino Patients): −12.7; Model-Based Least-Squares Mean Change from Baseline (SBP) (1 mg (N = 14), Week 8, mITT, Hispanic Male Patients): −15.8; Comp w/ Placebo at Week 6, Diff (95% CI) [7]: −6.2 (−19.55, 7.07); Comp w/ Placebo at Week 8, Diff (95% CI) [7]: 6.4 (−5.38, 18.10); Comp w/ Placebo at Week 6, Diff (95% CI) [8]: 2.1 (−6.16, 10.29); Comp w/ Placebo at Week 8, Diff (95% CI) [8]: 2.9 (−3.41, 9.25); Model-Based Least-Squares Mean Change from Baseline (SBP) (1 mg (N = 22), Week 2, mITT, Non-Hispanic Male Patients): −6.8; Model-Based Least-Squares Mean Change from Baseline (SBP) (1 mg (N = 22), Week 4, mITT, Non-Hispanic Male Patients): −10.3; Model-Based Least-Squares Mean Change from Baseline (SBP) (1 mg (N = 22), Week 6, mITT, Non-Hispanic Male Patients): −14.2; Model-Based Least-Squares Mean Change from Baseline (SBP) (1 mg (N = 22), Week 8, mITT, Non-Hispanic Male Patients): −14.7; Comp w/ Placebo at Week 6, Diff (95% CI) [9]: −4.3 (−13.56, 5.00); Comp w/ Placebo at Week 8, Diff (95% CI) [9]: 0.2 (−8.82, 9.26); SBP at Week 8, Mean (1 mg QD, mITT): 130.8 mmHg; SBP LS mean change from baseline (SE), MMRM (1 mg, Week 8): −16 (1.62) mm Hg; SBP LS mean difference (SE) vs placebo (1 mg, Week 8): 0.6 (2.20) mmHg; LS Mean Change from Baseline (SE) in SBP (1 mg, Wk 2): −7.7 (1.6) mm Hg; LS Mean Change from Baseline (SE) in SBP (1 mg, Wk 4): −9.7 (1.59) mm Hg
